Laboratory results taken from ChEMBL document CHEMBL3774360, “Potent multitarget FAAH-COX inhibitors: Design and structure-activity relationship studies” (Eur J Med Chem, 2016).
Active and inactive are the calls of the source. The calls are words filed in the database; no cut-off is given here.

How the values were obtained:
[1] = target: Centromere-associated protein E (Homo sapiens) (UniProt Q02224); experiment: Binding affinity to human CENP-E at 10 uM
[2] = target: Sodium/potassium-transporting ATPase (Homo sapiens) (UniProt P05023+P14415+P05026+P50993+P54709+P13637+Q13733+P54710); experiment: Binding affinity to sodium/potassium-transporting ATPase (unknown origin) at 10 uM; format: protein-complex assay
Homo sapiens [3] = species: Homo sapiens; experiment: Binding affinity to GABA transporter (unknown origin) at 10 uM by radioligand binding assay
Mus musculus = experiment: In-vivo inhibition of COX in mouse plasma assessed as decrease in TXA2 level at 1 mg/kg, iv after 1 hr by LC-MS/MS analysis; format: functional, organism-based
[4] = target: M-phase inducer phosphatase 1 (Homo sapiens) (UniProt P30304); experiment: Binding affinity to CDC25A (unknown origin) at 10 uM
[5] = target: T1, Prostaglandin G/H synthase 1 (Ovis aries, UniProt P05979); experiment: Inhibition of ovine COX1 assessed as production of PGF2-alpha preincubated with compound followed by the addition of 5 uM arachidonic acid as substrate by enzyme immunoassay
T1 sequence (P05979 whole entry): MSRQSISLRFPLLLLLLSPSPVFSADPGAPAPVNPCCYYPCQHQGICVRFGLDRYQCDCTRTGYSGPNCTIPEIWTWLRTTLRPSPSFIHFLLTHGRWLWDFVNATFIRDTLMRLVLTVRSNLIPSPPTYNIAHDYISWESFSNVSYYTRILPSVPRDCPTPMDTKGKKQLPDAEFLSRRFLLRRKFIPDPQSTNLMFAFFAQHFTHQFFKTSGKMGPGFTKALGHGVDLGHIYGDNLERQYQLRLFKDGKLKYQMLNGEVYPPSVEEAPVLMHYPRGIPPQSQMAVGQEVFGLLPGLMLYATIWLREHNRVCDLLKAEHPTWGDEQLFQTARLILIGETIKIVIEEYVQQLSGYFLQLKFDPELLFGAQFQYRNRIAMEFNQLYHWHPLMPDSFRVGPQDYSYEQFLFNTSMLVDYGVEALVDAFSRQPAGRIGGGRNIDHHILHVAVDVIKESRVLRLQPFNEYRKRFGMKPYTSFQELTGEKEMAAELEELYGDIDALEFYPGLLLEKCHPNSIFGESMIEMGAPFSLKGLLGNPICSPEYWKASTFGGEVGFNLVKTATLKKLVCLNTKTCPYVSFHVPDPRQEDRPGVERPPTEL

[6] = target: Adenosine receptor A2a (Homo sapiens) (UniProt P29274); experiment: Binding affinity to human adenosine A2A receptor at 10 uM by radioligand binding assay
[7] = target: Acetylcholinesterase (Homo sapiens) (UniProt P22303); experiment: Binding affinity to human acetylcholinesterase at 10 uM
[8] = target: Transient receptor potential cation channel subfamily V member 1 (Homo sapiens) (UniProt Q8NER1); experiment: Agonist activity against human TRPV1 receptor at 10 uM
[9] = target: Histamine H2 receptor (Homo sapiens) (UniProt P25021); experiment: Binding affinity to human histamine H2 receptor at 10 uM by radioligand binding assay
[10] = target: Type-2 angiotensin II receptor (Homo sapiens) (UniProt P50052); experiment: Binding affinity to human angiotensin receptor 2 at 10 uM by radioligand binding assay
[11] = target: Beta-1 adrenergic receptor (Homo sapiens) (UniProt P08588); experiment: Binding affinity to beta-1 adrenergic receptor (unknown origin) at 10 uM by radioligand binding assay
[12] = target: Protein deacetylase HDAC6 (Homo sapiens) (UniProt Q9UBN7); experiment: Binding affinity to human HDAC6 at 10 uM
[13] = target: Androgen receptor (Homo sapiens) (UniProt P10275); experiment: Binding affinity to human androgen receptor at 10 uM by radioligand binding assay
[14] = target: Amine oxidase [flavin-containing] A (Homo sapiens, UniProt P21397); experiment: Binding affinity to human MAO-A at 10 uM
[15] = target: Cholecystokinin receptor type A (Homo sapiens) (UniProt P32238); experiment: Binding affinity to human cholecystokinin receptor type A at 10 uM by radioligand binding assay
Homo sapiens [16] = species: Homo sapiens; experiment: Activation of human guanylyl cyclase at 10 uM
Homo sapiens [17] = species: Homo sapiens; experiment: Binding affinity to human muscarinic receptor at 10 uM by radioligand binding assay
Homo sapiens [18] = species: Homo sapiens; experiment: Binding affinity to P2Y receptor (unknown origin) at 10 uM by radioligand binding assay
Homo sapiens [19] = species: Homo sapiens; experiment: Binding affinity to GABA-gated chloride channel (unknown origin) at 10 uM by radioligand binding assay
[20] = target: D(4) dopamine receptor (Homo sapiens) (UniProt P21917); experiment: Binding affinity to human dopamine D4.4 receptor at 10 uM by radioligand binding assay
Homo sapiens [21] = species: Homo sapiens; experiment: Binding affinity to L-type calcium channel dihydropyridine binding site (unknown origin) at 10 uM by radioligand binding assay
[22] = target: Prostaglandin E2 receptor EP3 subtype (Homo sapiens) (UniProt P43115); experiment: Binding affinity to human EP3 receptor at 10 uM by radioligand binding assay
[23] = target: B1 bradykinin receptor (Homo sapiens) (UniProt P46663); experiment: Binding affinity to human bradykinin 1 receptor at 10 uM by radioligand binding assay
Homo sapiens [24] = species: Homo sapiens; experiment: Binding affinity to I2 imidazoline binding site (unknown origin) at 10 uM by radioligand binding assay
Homo sapiens [25] = species: Homo sapiens; experiment: Binding affinity to 5-HT1 receptor (unknown origin) at 10 uM
[26] = target: Cannabinoid receptor 2 (Homo sapiens) (UniProt P34972); experiment: Binding affinity to human cannabinoid receptor 2 at 10 uM by radioligand binding assay
[27] = target: Corticotropin-releasing factor receptor 1 (Homo sapiens) (UniProt P34998); experiment: Binding affinity to human CRF1 receptor at 10 uM by radioligand binding assay
[28] = target: Amine oxidase [flavin-containing] B (Homo sapiens, UniProt P27338); experiment: Binding affinity to recombinant human MAO-B at 10 uM
Homo sapiens [29] = species: Homo sapiens; experiment: Binding affinity to L-type calcium channel verapamil binding site (unknown origin) at 10 uM by radioligand binding assay
[30] = target: Dual specificity calcium/calmodulin-dependent 3',5'-cyclic nucleotide phosphodiesterase 1B (Homo sapiens) (UniProt Q01064); experiment: Binding affinity to human PDE1B at 10 uM
[31] = target: Melatonin receptor type 1A (Homo sapiens) (UniProt P48039); experiment: Binding affinity to human melatonin receptor type 1 at 10 uM by radioligand binding assay
[32] = target: cGMP-specific 3',5'-cyclic phosphodiesterase (Homo sapiens) (UniProt O76074); experiment: Binding affinity to human PDE5 at 10 uM
Homo sapiens [33] = species: Homo sapiens; experiment: Binding affinity to L-type calcium channel diltiazem binding site (unknown origin) at 10 uM by radioligand binding assay
Homo sapiens [34] = species: Homo sapiens; experiment: Binding affinity to GABA receptor (unknown origin) at 10 uM by radioligand binding assay
[35] = target: Gastrin/cholecystokinin type B receptor (Homo sapiens) (UniProt P32239); experiment: Binding affinity to human cholecystokinin receptor type B at 10 uM by radioligand binding assay

Cholecystokinin receptor type A (Homo sapiens), sequence (P32238 whole entry): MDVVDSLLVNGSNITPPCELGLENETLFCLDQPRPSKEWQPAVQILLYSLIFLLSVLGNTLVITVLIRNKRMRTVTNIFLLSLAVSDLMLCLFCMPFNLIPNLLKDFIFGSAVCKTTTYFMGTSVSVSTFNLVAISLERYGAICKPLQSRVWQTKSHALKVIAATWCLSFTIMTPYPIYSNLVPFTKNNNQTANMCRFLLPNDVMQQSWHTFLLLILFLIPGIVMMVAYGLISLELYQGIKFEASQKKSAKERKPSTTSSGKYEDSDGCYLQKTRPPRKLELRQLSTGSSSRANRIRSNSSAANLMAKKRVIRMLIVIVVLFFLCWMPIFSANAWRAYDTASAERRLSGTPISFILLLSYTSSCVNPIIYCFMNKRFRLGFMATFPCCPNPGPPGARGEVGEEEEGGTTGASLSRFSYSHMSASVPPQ
Centromere-associated protein E (Homo sapiens), sequence (Q02224 whole entry): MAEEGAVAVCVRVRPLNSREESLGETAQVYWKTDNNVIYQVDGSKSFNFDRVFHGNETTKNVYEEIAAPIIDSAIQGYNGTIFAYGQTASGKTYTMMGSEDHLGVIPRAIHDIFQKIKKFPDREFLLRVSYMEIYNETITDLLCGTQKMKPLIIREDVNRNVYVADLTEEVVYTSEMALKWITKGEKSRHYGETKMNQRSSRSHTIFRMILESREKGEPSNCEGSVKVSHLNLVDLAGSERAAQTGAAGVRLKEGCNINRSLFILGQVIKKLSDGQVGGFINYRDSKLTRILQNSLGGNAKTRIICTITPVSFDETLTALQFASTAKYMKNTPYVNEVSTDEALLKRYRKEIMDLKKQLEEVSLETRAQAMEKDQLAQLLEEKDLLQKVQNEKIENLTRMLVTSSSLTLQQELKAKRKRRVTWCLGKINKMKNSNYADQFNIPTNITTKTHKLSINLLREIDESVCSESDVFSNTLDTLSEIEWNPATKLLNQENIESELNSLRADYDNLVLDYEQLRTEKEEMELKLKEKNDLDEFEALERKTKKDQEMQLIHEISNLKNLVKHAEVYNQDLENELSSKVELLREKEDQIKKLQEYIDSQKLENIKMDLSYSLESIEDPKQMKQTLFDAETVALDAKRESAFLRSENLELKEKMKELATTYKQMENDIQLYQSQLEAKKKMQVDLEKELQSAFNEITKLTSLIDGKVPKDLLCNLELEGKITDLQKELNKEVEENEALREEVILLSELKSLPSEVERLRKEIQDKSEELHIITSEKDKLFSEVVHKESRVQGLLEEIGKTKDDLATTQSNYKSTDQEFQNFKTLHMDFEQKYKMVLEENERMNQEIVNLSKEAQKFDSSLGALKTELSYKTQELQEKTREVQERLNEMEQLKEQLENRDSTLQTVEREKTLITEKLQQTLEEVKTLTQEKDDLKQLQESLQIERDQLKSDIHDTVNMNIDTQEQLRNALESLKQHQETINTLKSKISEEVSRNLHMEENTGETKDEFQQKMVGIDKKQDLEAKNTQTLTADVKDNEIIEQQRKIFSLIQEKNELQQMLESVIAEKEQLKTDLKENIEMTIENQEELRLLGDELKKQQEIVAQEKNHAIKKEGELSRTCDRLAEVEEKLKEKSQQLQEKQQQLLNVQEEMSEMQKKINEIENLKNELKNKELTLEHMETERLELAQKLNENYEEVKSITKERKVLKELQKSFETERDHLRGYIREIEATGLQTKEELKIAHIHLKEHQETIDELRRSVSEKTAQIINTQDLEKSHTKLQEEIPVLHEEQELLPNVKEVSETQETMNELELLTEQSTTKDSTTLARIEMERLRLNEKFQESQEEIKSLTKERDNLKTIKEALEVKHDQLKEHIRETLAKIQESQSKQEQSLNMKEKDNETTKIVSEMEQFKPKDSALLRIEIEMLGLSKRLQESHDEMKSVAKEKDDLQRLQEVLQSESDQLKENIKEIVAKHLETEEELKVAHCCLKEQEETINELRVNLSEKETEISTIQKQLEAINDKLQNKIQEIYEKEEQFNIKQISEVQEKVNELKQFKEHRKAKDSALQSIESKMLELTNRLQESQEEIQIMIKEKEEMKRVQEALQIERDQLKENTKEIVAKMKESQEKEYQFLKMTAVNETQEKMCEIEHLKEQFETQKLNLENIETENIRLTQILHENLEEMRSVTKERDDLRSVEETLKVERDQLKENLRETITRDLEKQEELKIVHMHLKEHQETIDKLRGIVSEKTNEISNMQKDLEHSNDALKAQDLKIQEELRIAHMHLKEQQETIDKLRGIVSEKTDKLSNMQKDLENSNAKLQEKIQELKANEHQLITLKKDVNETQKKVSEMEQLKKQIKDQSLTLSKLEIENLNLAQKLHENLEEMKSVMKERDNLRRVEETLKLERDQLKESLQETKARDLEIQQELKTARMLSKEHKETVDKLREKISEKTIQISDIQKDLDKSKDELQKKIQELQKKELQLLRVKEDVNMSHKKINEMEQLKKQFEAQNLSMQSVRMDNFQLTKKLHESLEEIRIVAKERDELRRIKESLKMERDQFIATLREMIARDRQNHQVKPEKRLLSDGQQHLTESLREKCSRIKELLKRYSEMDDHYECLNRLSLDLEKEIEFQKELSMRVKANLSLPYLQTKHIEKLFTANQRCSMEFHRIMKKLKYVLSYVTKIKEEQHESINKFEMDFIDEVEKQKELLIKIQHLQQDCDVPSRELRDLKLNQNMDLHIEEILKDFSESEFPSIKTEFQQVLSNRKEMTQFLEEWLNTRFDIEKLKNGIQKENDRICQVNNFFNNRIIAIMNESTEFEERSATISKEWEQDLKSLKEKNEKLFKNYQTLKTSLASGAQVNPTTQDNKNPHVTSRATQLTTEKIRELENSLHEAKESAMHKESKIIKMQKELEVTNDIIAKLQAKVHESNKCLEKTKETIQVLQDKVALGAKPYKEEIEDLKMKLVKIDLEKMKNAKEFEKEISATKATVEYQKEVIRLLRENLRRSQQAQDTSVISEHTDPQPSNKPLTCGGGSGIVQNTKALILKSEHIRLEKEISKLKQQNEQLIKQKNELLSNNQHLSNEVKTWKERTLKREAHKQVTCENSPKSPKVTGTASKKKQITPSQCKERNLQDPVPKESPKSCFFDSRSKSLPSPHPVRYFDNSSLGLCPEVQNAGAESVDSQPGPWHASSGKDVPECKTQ
Amine oxidase [flavin-containing] B, sequence (P27338 whole entry): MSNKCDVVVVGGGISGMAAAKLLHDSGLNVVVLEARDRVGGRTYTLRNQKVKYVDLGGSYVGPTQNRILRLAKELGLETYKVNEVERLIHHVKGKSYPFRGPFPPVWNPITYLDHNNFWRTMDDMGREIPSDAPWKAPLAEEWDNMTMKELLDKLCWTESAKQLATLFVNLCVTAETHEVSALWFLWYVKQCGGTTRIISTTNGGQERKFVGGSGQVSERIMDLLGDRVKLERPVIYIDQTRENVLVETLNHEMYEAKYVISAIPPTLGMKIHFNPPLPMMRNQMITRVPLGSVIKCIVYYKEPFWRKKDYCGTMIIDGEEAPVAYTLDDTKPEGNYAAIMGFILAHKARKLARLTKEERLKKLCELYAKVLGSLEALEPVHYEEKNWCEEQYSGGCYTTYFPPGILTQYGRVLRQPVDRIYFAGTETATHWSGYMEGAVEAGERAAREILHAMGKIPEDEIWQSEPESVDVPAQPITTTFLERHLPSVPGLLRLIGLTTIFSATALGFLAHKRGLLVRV
Acetylcholinesterase (Homo sapiens), sequence (P22303 whole entry): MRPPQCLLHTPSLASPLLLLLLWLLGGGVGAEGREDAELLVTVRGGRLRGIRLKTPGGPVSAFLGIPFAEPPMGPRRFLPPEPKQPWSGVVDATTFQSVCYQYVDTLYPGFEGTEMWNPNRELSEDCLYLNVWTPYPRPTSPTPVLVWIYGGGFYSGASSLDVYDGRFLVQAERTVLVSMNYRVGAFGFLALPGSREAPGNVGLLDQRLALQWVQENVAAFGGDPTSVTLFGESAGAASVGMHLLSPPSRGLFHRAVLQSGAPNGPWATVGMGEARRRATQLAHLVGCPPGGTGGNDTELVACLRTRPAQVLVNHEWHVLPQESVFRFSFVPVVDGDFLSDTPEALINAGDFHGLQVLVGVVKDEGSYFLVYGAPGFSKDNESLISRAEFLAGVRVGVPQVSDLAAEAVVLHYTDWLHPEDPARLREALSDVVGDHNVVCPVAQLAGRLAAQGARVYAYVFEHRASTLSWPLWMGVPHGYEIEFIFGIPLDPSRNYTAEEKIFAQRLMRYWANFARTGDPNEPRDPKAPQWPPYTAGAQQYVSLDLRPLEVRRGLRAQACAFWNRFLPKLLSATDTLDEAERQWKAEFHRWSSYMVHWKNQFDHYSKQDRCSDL
Cannabinoid receptor 2 (Homo sapiens), sequence (P34972 whole entry): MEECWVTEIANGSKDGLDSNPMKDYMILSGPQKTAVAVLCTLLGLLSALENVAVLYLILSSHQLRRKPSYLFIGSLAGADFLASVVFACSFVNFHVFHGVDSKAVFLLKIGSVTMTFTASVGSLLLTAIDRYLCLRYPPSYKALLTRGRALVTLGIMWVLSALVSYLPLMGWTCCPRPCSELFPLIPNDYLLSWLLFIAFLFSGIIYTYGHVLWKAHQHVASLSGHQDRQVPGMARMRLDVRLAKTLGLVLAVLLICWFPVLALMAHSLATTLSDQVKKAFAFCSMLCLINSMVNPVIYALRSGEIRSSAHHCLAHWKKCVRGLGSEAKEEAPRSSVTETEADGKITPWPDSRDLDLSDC
Beta-1 adrenergic receptor (Homo sapiens), sequence (P08588 whole entry, looked up): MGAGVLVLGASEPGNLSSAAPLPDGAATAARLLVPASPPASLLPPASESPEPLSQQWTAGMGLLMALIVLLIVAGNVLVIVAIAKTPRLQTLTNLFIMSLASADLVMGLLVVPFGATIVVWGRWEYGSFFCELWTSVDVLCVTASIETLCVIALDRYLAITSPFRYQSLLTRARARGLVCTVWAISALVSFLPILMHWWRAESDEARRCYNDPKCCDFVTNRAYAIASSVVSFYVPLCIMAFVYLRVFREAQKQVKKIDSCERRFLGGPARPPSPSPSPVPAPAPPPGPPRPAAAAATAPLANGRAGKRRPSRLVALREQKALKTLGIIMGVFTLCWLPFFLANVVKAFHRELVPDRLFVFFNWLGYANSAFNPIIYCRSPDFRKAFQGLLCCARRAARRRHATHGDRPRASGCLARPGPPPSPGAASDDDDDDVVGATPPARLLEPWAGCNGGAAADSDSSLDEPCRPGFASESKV

## CCCCCCNC(=O)Oc1cccc(-c2ccc([C@H](C)C(=O)O)cc2F)c1
[1]
  Activity: -3.3%
[2]
  Activity: 0.9%
Homo sapiens [3]
  Activity: -3.3%
Mus musculus
  inhibition: Active
[4]
  Activity: -6.3%
[5]
  IC50: 0.29 nM
[6]
  Activity: -7.3%
[7]
  Activity: -4.8%
[8]
  Activity: -3.2%
[9]
  Activity: -0.4%
[10]
  Activity: 12.4%
[11]
  Activity: 5.2%
[12]
  Activity: -10.6%
[13]
  Activity: 3.7%
[14]
  Activity: -11.2%
[15]
  Activity: 10.8%
Homo sapiens [16]
  Activity: 6.7%
Homo sapiens [17]
  Activity: 5%
Homo sapiens [18]
  Activity: 17.7%
Homo sapiens [19]
  Activity: 36%
[20]
  Activity: -4.4%
Homo sapiens [21]
  Activity: -19.3%
[22]
  Activity: 10.9%
[23]
  Activity: -5.1%
Homo sapiens [24]
  Activity: -1.8%
Homo sapiens [25]
  Activity: 7.8%
[26]
  Activity: -3%
[27]
  Activity: 11.9%
[28]
  Activity: -15.4%
Homo sapiens [29]
  Activity: -7.7%
[30]
  Activity: 28.3%
[31]
  Activity: -9.9%
[32]
  Activity: -21.9%
Homo sapiens [33]
  Activity: -19.5%
Homo sapiens [34]
  Activity: -9.5%
[35]
  Activity: 26.5%
